US20200407398A1, “Short Proline-Rich Lipopeptide Potentiates Minocycline and Rifampicin Against Multidrug-and Extensively Drug-Resistant Pseudomonas Aeruginosa” (priority 2018, published 2020)
Peptide text beside a SMILES is read from it. * marks the point of attachment. Palmitoyl = CCCCCCCCCCCCCCCC(=O)*

Columns and labels:
[1] = system: A. baumannii CAN-ICU 63169; format: cell-based
Protocol: (§1) The synthesized SPRLPs were evaluated for their antibacterial potency against a panel of Gram-positive and Gram-negative bacteria (Tables 2 & 3). Some of the included pathogens were collected from patients visiting or admitted to participating Canadian hospitals through the CAN-ICU (27) and CANWARD (28) national surveillance studies. Antibacterial activity was assessed using minimum inhibitory concentration (MIC) against various clinical pathogens.
(§2) Isolates used in this study were either obtained from the American Type Culture Collection (ATCC), the Canadian National Intensive Care Unit (CAN-ICU) surveillance study (27) or the Canadian Ward Surveillance (CANWARD) study (28). Clinical isolates belonging to the CAN-ICU and CANWARD studies were recovered from patients suffering a presumed infectious disease entering or admitted in a participating medical center across Canada during the time of study. MDR P. aeruginosa strains in this study refer to those that are resistant to aminoglycosides, fluoroquinolones, cephalosporins, and carbapenems while XDR strains are those that are resistant to aminoglycosides, fluoroquinolones, cephalosporins, carbapenems, aztreonam and penicillin+β-lactamase inhibitor combination (39, 40).
(§3) Microbroth dilution susceptibility test following the Clinical and Laboratory Standards Institute (CLSI) guidelines (32) was performed to assess the in vitro antibacterial activity of SPRLPs. Overnight grown bacterial cultures were diluted in saline to achieve a 0.5 McFarland turbidity, followed by 1:50 dilution in Mueller-Hinton broth (MHB) for inoculation to a final concentration of 5×10^5 colony forming units/mL. The assay was done on a 96-well plate to which the agents of interest were 2-fold serially diluted in MHB and incubated with equal volumes of inoculum at 37° C. for 18 hours. MIC was determined as the lowest concentration to inhibit visible bacterial growth in form of turbidity, which was confirmed using EMax Plus microplate reader (Molecular Devices, USA) at a wavelength of 590 nm. The well containing MHB broth with or without bacterial cells was used as positive or negative control, respectively.

[2] = system: E. coli ATCC 25922; format: cell-based
Protocol: as §1, §2, §3

[3] = system: E. coli CAN-ICU 61714 (gentamicin-resistant); format: cell-based
Protocol: as §1, §2, §3

[4] = system: E. coli CAN-ICU 63074 (amikacin-intermediate resistant); format: cell-based
Protocol: as §1, §2, §3

[5] = system: E. coli CANWARD-2011 97615 (gentamicin-, tobramycin-, ciprofloxacin-resistant) aac(3′)iia; format: cell-based
Protocol: as §1, §2, §3

[6] = system: E. faecalis ATCC 29212; format: cell-based
Protocol: as §1, §2, §3

[7] = system: E. faecium ATCC 27270; format: cell-based
Protocol: as §1, §2, §3

[8] = system: K. pneumoniae ATCC 13883; format: cell-based
Protocol: as §1, §2, §3

[9] = system: P. aeruginosa ATCC 27853; format: cell-based
Protocol: as §1, §2, §3

[10] = system: P. aeruginosa CAN-ICU 62308 (gentamicin-resistant); format: cell-based
Protocol: as §1, §2, §3

[11] = system: P. aeruginosa CANWARD-2011 96846 (gentamicin-, tobramycin-resistant); format: cell-based
Protocol: as §1, §2, §3

[12] = system: P. aeruginosa wild-type PAO1; format: cell-based
Protocol: as §1, §2, §3

[13] = system: S. aureus ATCC 29213; format: cell-based
Protocol: as §1, §2, §3

[14] = system: S. maltophilia CAN-ICU 62584; format: cell-based
Protocol: as §1, §2, §3

[15] = system: methicillin-resistant S. aureus ATCC 33592; format: cell-based
Protocol: as §1, §2, §3

[16] = system: methicillin-resistant S. epidermidis CAN-ICU 61589 (ceftazidime-resistant); format: cell-based; details: methicillin-resistant CAN-ICU 61589 (ceftazidime-resistant)
Protocol: as §1, §2, §3

[17] = system: methicillin-susceptible Staphylococcus epidermidis CANWARD-2008 81388; format: cell-based; details: methicillin-susceptible CANWARD-2008 81388
Protocol: as §1, §2, §3

[18] = system: pig erythrocytes; format: cell-based
Protocol: Since PRAMPs are able to kill bacteria through membrane lysis, it is imperative to evaluate whether these synthesized SPRLPs also lyse eukaryotic membranes. The ability to lyse porcine red blood cells was assessed and the minimum concentration to result in 5% erythrocyte hemolysis (MHC) was reported (Tables 2 & 3). […] This greatly limits their therapeutic potential. […] However, all other SPRLPs were non-hemolytic (MHC>512 μg/mL).
The ability of SPRLPs to lyse eukaryotic red blood cells were quantified by the amount of hemoglobin released upon incubation with pig erythrocytes, following published protocols (37, 39). Fresh pig blood drawn from pig antecubital vein was centrifuged at 1000×g for 5 minutes at 4° C., washed with PBS three times and re-suspended in the same buffer, consecutively. Then, agents of interest were 2-fold serially diluted in PBS on 96-well plate and mixed with equal volumes of erythrocyte solution. Post 1-hour incubation at 37° C., intact cells were pelleted by centrifugation at 1000×g for 5 minutes at 4° C. The supernatant was then transferred to a new 96-well plate. The hemoglobin released was measured via EMax Plus microplate reader (Molecular Devices, USA) at 570 nm wavelength. Erythrocytes in PBS with or without 0.1% Triton X-100 was used as negative or positive control, respectively.

[19] = system: Gram-positive bacteria; assay: Microbroth dilution MIC, range over panel; format: cell-based; details: against Gram-positive bacteria of the panel
Protocol: as §1, §3

[20] = system: P. aeruginosa PAO1 (wild-type); assay: microbe, parasite or virus in culture; details: Pseudomonas aeruginosa, PAO1, read-out: MIC (agent alone)
Protocol: (§4) We evaluated the activity of SPRLPs in combination with fifteen clinically-used antibiotics against P. aeruginosa. Antibiotics tested included fluoroquinolones (moxifloxacin, ciprofloxacin and levofloxacin), aminoglycosides (gentamicin, tobramycin and amikacin), cephalosporins (ceftazidime and cefotaxime), carbapenems (meropenem and doripenem), aztreonam, rifampicin, minocycline, colistin and fosfomycin. The SPRLPs were screened initially at a fixed concentration of 8 μg/mL (5 μM) in combination with antibiotics against wild-type P. aeruginosa PAO1. We assessed potentiation by at least a four-fold absolute MIC reduction of the antibiotic, after which synergism was further validated by a conventional checkerboard assay. A fractional inhibitory concentration (FIC) index of ≤0.5, 0.5<x≤4 or >4 was interpreted as synergistic, indifferent or antagonistic interaction, respectively (31). FIC index was obtained by adding the FIC values of the antibiotic and the SPRLP adjuvant. FIC of antibiotics was calculated by dividing the MIC of the antibiotic in the presence of the adjuvant by the MIC of the antibiotic alone. Similarly, the FIC of adjuvant was calculated via dividing the MIC of the adjuvant in the presence of the antibiotic by the MIC of the adjuvant alone.
as §3
(§5) The assay was performed on a 96-well plate, to which the agents of interest was 2-fold serially diluted in working MHB. Prior to serial dilution, SPRLP was added to the working MHB media so that a fixed final concentration of 8 μg/mL (5 μM) SPRLP per well was achieved. To ensure that the assay was working, the MIC determination test of the studied antibiotic (without SPRLP) was included on the same plate. Similar MIC results between the assay comparator and an independent MIC determination test (on a different plate) ensured validity of the synergy test. Overnight grown bacterial cultures were diluted in saline to 0.5 McFarland turbidity, followed by 1:50 dilution in MHB (without SPRLP) and inoculation into each well to a final concentration of approximately 5×10^5 colony forming units/mL. Wells containing only MHB (without SPRLP) with or without bacterial cells were used as positive or negative control, respectively. The plate was then incubated at 37° C. for 18 hours and examined for visible turbidity, to which was confirmed using EMax Plus microplate reader (Molecular Devices, USA) at a wavelength of 590 nm. A 4-fold or more MIC reduction of antibiotic in the presence of 8 μg/mL (5 μM) SPRLP denoted a positive synergy result and was further validated by a checkerboard assay.
The assay was done on a 96-well plate as previously described (40, 41). The agent of interest was 2-fold serially diluted along the x-axis, while the adjuvant was 2-fold serially diluted along the y-axis to create a matrix in which each well consist of a combination of both at different concentrations.

[21] = system: P. aeruginosa 100036 (MDR/XDR); assay: microbe, parasite or virus in culture; details: Pseudomonas aeruginosa, read-out: MIC (agent alone)
Protocol: as §4, §2, §3
as §5, with “respectively.” for “respectively. The plate was then incubated at 37° C. for 18 hours and examined for visible turbidity, to which was confirmed using EMax Plus microplate reader (Molecular Devices, USA) at a wavelength of 590 nm. A 4-fold or more MIC reduction of antibiotic in the presence of 8 μg/mL (5 μM) SPRLP denoted a positive synergy result and was further validated by a checkerboard assay.”

[22] = system: P. aeruginosa 101243 (colistin-resistant, MDR/XDR); assay: microbe, parasite or virus in culture; details: Pseudomonas aeruginosa, read-out: MIC (agent alone), P. aeruginosa 101243 (colistin-resistant); antibiotic or lipopeptide alone
Protocol: as §4, §2, §3
as §5, with “respectively.” for “respectively. The plate was then incubated at 37° C. for 18 hours and examined for visible turbidity, to which was confirmed using EMax Plus microplate reader (Molecular Devices, USA) at a wavelength of 590 nm. A 4-fold or more MIC reduction of antibiotic in the presence of 8 μg/mL (5 μM) SPRLP denoted a positive synergy result and was further validated by a checkerboard assay.”

[23] = system: P. aeruginosa 101885 (MDR/XDR); assay: microbe, parasite or virus in culture; details: Pseudomonas aeruginosa, read-out: MIC (agent alone)
Protocol: as §4, §2, §3
as §5, with “respectively.” for “respectively. The plate was then incubated at 37° C. for 18 hours and examined for visible turbidity, to which was confirmed using EMax Plus microplate reader (Molecular Devices, USA) at a wavelength of 590 nm. A 4-fold or more MIC reduction of antibiotic in the presence of 8 μg/mL (5 μM) SPRLP denoted a positive synergy result and was further validated by a checkerboard assay.”

[24] = system: P. aeruginosa 259-96918 (MDR/XDR); assay: microbe, parasite or virus in culture; details: Pseudomonas aeruginosa, read-out: MIC (agent alone)
Protocol: as §4, §2, §3
as §5, with “respectively.” for “respectively. The plate was then incubated at 37° C. for 18 hours and examined for visible turbidity, to which was confirmed using EMax Plus microplate reader (Molecular Devices, USA) at a wavelength of 590 nm. A 4-fold or more MIC reduction of antibiotic in the presence of 8 μg/mL (5 μM) SPRLP denoted a positive synergy result and was further validated by a checkerboard assay.”

[25] = system: P. aeruginosa 260-97103 (MDR/XDR); assay: microbe, parasite or virus in culture; details: Pseudomonas aeruginosa, read-out: MIC (agent alone)
Protocol: as §4, §2, §3
as §5, with “respectively.” for “respectively. The plate was then incubated at 37° C. for 18 hours and examined for visible turbidity, to which was confirmed using EMax Plus microplate reader (Molecular Devices, USA) at a wavelength of 590 nm. A 4-fold or more MIC reduction of antibiotic in the presence of 8 μg/mL (5 μM) SPRLP denoted a positive synergy result and was further validated by a checkerboard assay.”

[26] = system: P. aeruginosa 262-101856 (MDR/XDR); assay: microbe, parasite or virus in culture; details: Pseudomonas aeruginosa, read-out: MIC (agent alone)
Protocol: as §4, §2, §3
as §5, with “respectively.” for “respectively. The plate was then incubated at 37° C. for 18 hours and examined for visible turbidity, to which was confirmed using EMax Plus microplate reader (Molecular Devices, USA) at a wavelength of 590 nm. A 4-fold or more MIC reduction of antibiotic in the presence of 8 μg/mL (5 μM) SPRLP denoted a positive synergy result and was further validated by a checkerboard assay.”

[27] = system: P. aeruginosa 264-104354 (MDR/XDR); assay: microbe, parasite or virus in culture; details: Pseudomonas aeruginosa, read-out: MIC (agent alone)
Protocol: as §4, §2, §3
as §5, with “respectively.” for “respectively. The plate was then incubated at 37° C. for 18 hours and examined for visible turbidity, to which was confirmed using EMax Plus microplate reader (Molecular Devices, USA) at a wavelength of 590 nm. A 4-fold or more MIC reduction of antibiotic in the presence of 8 μg/mL (5 μM) SPRLP denoted a positive synergy result and was further validated by a checkerboard assay.”

[28] = system: P. aeruginosa 91433 (colistin-resistant, MDR/XDR); assay: microbe, parasite or virus in culture; details: Pseudomonas aeruginosa, read-out: MIC (agent alone)
Protocol: as §4, §2, §3
as §5, with “respectively.” for “respectively. The plate was then incubated at 37° C. for 18 hours and examined for visible turbidity, to which was confirmed using EMax Plus microplate reader (Molecular Devices, USA) at a wavelength of 590 nm. A 4-fold or more MIC reduction of antibiotic in the presence of 8 μg/mL (5 μM) SPRLP denoted a positive synergy result and was further validated by a checkerboard assay.”

Structure (SMILES): CCCCCCCCCCCCCCCC(=O)N1CCC[C@H]1C(=O)N[C@@H](CCCNC(=N)N)C(=O)N1CCC[C@H]1C(=O)N[C@@H](Cc1c[nH]c2ccccc12)C(=O)N1CCC[C@H]1C(=O)N[C@@H](CCCNC(=N)N)C(=O)N1CCC[C@H]1C(N)=O [Compound C16-PWP, CH3(CH2)14CO-PRPWPRP-NH2] (Palmitoyl-PRPWPRP-NH2)
- MIC [1]: 64 µg/mL
- MIC [2]: 32 µg/mL
- MIC [3]: 32 µg/mL
- MIC [4]: 16 µg/mL
- MIC [5]: 64 µg/mL
- MIC [6]: 8 µg/mL
- MIC [7]: 8 µg/mL
- MIC [8]: 64 µg/mL
- MIC [9]: 64 µg/mL
- MIC [10]: 64 µg/mL
- MIC [11]: 64 µg/mL
- MIC [12]: 32 µg/mL
- MIC [13]: 8 µg/mL
- MIC [14]: 64 µg/mL
- MIC [15]: 8 µg/mL
- MIC [16]: 8 µg/mL
- MIC [17]: 4 µg/mL
- MHC (minimum concentration that resulted in 5% red blood cell hemolysis) [18]: 16 µg/mL
- MIC range [19]: 4 to 8 µg/mL

Structure (SMILES): CO[C@H]1/C=C/O[C@@]2(C)Oc3c(C)c(O)c4c(O)c(c(/C=N/N5CCN(C)CC5)c(O)c4c3C2=O)NC(=O)/C(C)=C\C=C\[C@H](C)[C@H](O)[C@@H](C)[C@@H](O)[C@@H](C)[C@H](OC(C)=O)[C@@H]1C [rifampicin]
- MIC [20]: 8 µg/mL
- MIC [21]: 16 µg/mL
- MIC [22]: 4 µg/mL
- MIC [23]: 16 µg/mL
- MIC [24]: 16 µg/mL
- MIC [25]: 16 µg/mL
- MIC [26]: 512 µg/mL
- MIC [27]: 8 µg/mL
- MIC [28]: 16 µg/mL
